Data reported in patent US20190248834A1, “ENDOMORPHIN-2, TETRAPEPTIDE DERIVATIVES THEREOF, AND USES THEREOF” (priority 2016, published 2019).
Primed or numbered codes have the meaning given here. *: point of attachment. Bz′ = not defined here; NHPr = CCCN*; NHNH2 = NN*; NHOH = ON*

What was measured:
[1] = test system: osteoarthritis of the knees; assay: Example 94 (second): osteoarthritic knees, intra-articular injection of N-Bz hydrazide; format: in vivo, human; details: 0.08% (0.8 mg/ml) in water, 1 ml per knee intra-articular
Procedure: A subject with osteoarthritis of the knees that progressively worsened over the years, evaluated the analgesic effectiveness of many topical preparations of tetrapeptide derivatives of the invention on numerous occasions. After such experiences they decided to self-inject […] knees with a sterile aqueous preparation of N-Bz-Tyr-Pro-Phe-Phe-NHNH2 (SEQ ID NO: 91) at a concentration of 0.08% (0.8 mg/ml) in water. Each knee was injected with 1 ml (0.8 mg) of the preparation via the sub-patellar route. […] The knees felt more comfortable than usual after 24 hours. The improvement from […] was judged to be more than 90% by clinical evaluation.

[2] = test system: psoriatic arthritis, fingers and wrists; assay: Example 95: comparative analgesic efficacy on pain of psoriatic arthritis, topical; format: in vivo, human; details: for pain relief: 1% (w/v) in WEP442, topical to fingers and wrists
Text: […] Treatment of the subject over the years included methotrexate and other antimetabolites, and in recent years, drugs known as biologic medications. While these agents provided intervals of relief, none provided lasting benefit. Over the past decade, painful arthritis developed in both hands and knees, and in numerous joints of the fingers. Three related tetrapeptide derivatives, 1% (w/v) in vehicle WEP442, were topically applied to the fingers and wrists of both hands one at a time. […] Analgesic efficacy was rated by the subject as 75%.

headache = assay: Example 52: analgesic effect on headache; format: in vivo, human; details: two 500 mg tablets, oral
Text: At 5:30 p.m., the headache pain was becoming more intense, at which time they topically applied a composition containing 1% (w/v) of N-Pg-Tyr-Pro-Phe-Phe-NH2 (SEQ ID NO: 44) in WEP442 to the entire forehead and temporal areas. […] There was no recurrence of symptoms over the next 3 days of follow-up time.

[3] = test system: trapezius muscle strain pain; assay: Example 81: analgesic effect on pain from trapezius muscle strain, topical; format: in vivo, human; details: 0.7% (w/v) in propylene glycol: triethyl citrate : water (4:4:2)
Text: A subject with persistent pain localized to a site medial to the upper right scapula (shoulder blade) topically applied to that site a composition containing 0.7% (w/v) of N-Ac-Tyr-Pro-Phe-Phe-NHCH3(SEQ ID NO: 24) in propylene glycol: triethyl citrate : water (4:4:2 ratio).

[4] = test system: osteoarthritis of the fingers and wrists; assay: Example 83: analgesic effect on osteoarthritic pain, topical; format: in vivo, human; details: 0.8% (w/v) in WEP442, topical
Procedure: A subject had osteoarthritis of the fingers and wrists for about 10 years, with substantial worsening over the past several months. Symptoms included painful finger joints and wrists. The pain was much worsened by flexion, so that making a first was too painful to try. Moreover, complete flexion had not been possible because of actual physical limitations. Anatomical signs of their disorder, e.g., enlarged finger joints, were conspicuous in their case. After 36 hours of no topical or systemic use of any analgesic agent, pain in the fingers and wrists was again present and substantial, so much so that they were unable to slice vegetables with a knife.

[5] = test system: psoriatic arthritis of finger joints; assay: Example 84: analgesic effect on pain from psoriatic arthritis, topical; format: in vivo, human; details: 0.8% (w/v) in WEP442, topical
Text: A subject […], had extensive plaque psoriasis and painful arthritis of the interphalangeal joints of both index fingers, left thumb and left 5th finger, which compromised their work performance as an esthetician. The subject topically applied a solution composition containing 0.8% (w/v) of N-Ac-Tyr-Pro-Phe-Phe-NHCH3 (SEQ ID NO: 24) in WEP442 to their painful fingers.

lower back (lumbar) pain = assay: Example 85: analgesic effect on lower back pain, topical; format: in vivo, human
Procedure: A subject had lower back (lumbar) pain associated with sitting in a crouched position at a low work table for about 3 hours. Upon their sitting up straight, the pain became more pronounced and persisted as they walked around for 15-20 minutes.

post-sunburn pain = assay: Example 86: analgesic effect on sunburn pain, topical; format: in vivo, human
Procedure: A subject, experienced post-sunburn pain at the frontal hairline of the scalp, an area not earlier covered by sunscreen lotion at time of sun exposure several days earlier. They vigorously rubbed the area later to remove lingering skin scales, which caused irritation and pain. […] Relief lasted for 4 hours. […] The condition was then resolved with the use of a hydrating skin cream.

[6] = test system: psoriatic arthritis pain, fingers and wrists; assay: Example 48: comparative analgesic efficacy, psoriatic arthritis pain of fingers and wrists, topical; format: in vivo, human; details: 1% (w/v) in WEP442, topical
Text: […] Treatment of the subject over the years included methotrexate and other antimetabolites, and in recent years drugs known as biologic medications. While these agents have provided intervals of relief, none has provided a lasting benefit. Over the past decade, painful arthritis developed in both wrists and in numerous joints of the fingers. Four related tetrapeptide derivatives, 1% (w/v) solution compositions in vehicle WEP442, one at a time, were topically applied to the fingers and wrists of both hands. […] Efficacy was rated by the subject as 4+. • (B) N-Ac-Tyr-Pro-Phe-Phe-NHNH2 (SEQ ID NO: 31) provided slow relief of pain, i.e. within about 10 minutes. […] Analgesic efficacy was judged by the subject to be 0 to 1+.

hangover headache = assay: Example 54: analgesic effect on hangover headache, topical; format: in vivo, human; details: 1% (w/v) in WEP442, topical
Text: A subject with a “splitting” headache the morning after heavy drinking at a party the night before, topically applied to the entire head and neck a composition containing 1% (w/v) of N-Ac-Tyr-Pro-Phe-Phe-NHNH2 (SEQ ID NO: 31) in WEP442. […] They then drove their car approximately 90 miles to their residence.

sinus headaches = assay: Example 55: analgesic effect on headache due to sinusitis, topical; format: in vivo, human; details: 1% (w/v) in WEP442, topical
Text: A subject, suffered from chronic recurrent “sinus headaches.” At the time of one such headache, they topically applied to the entire forehead and, with their eyes closed, to the sites overlying the frontal and maxillary sinuses a composition containing 1% (w/v) of N-Ac-Tyr-Pro-Phe-Phe-NHNH2 (SEQ ID NO: 31) in WEP442.

thermal burn of finger = assay: Example 56: analgesic effect on finger pain caused by thermal burn, topical; format: in vivo, human; details: 1% (w/v) in WEP442, topical
Text: A subject, suffered a thermal burn of their right fourth finger from touching a hot kitchen plate. […] Six days later, the burned site appeared normal.

migraine = assay: Example 80: analgesic effect on pain and nausea from migraine headache, topical; format: in vivo, human; details: 0.5% (w/v) in WEP442, topical at onset of symptoms
Text: A subject with a history of recurrent attacks of migraine, was provided a solution composition containing 0.5% (w/v) of N-Pg-Tyr-Pro-Phe-Phe-NH2 (SEQ ID NO: 44) in WEP442 and a solution composition containing 0.5% (w/v) of N-Ac-Tyr-Pro-Phe-Phe-NHNH2 (SEQ ID NO: 31) in WEP442. […] Sensations of nausea that might have lingered went away after several minutes following a second topical application.

[7] = test system: arthritic pain of wrists and fingers (psoriasis); assay: Example 61: comparative analgesic efficacy in psoriatic arthritis of wrists and fingers, topical; format: in vivo, human; details: 1% (w/v) in WEP442, topical
Text: A subject with severe generalized psoriasis compared the topical efficacy of solution compositions of nine (9) tetrapeptide derivatives on arthritic pain of their wrists and fingers. All of the solution compositions contained 1% (w/v) of tetrapeptide derivative in WEP442.

mu receptors = mu receptors (Mus musculus, UniProt P42866); details: mouse brain; cited from earlier work
[8] = test system: rat rostral ventrolateral medulla neurons; details: in vitro; cited from earlier work
[9] = rats injected with 18 pmol; cited from earlier work

mu receptors, sequence (P42866 whole entry): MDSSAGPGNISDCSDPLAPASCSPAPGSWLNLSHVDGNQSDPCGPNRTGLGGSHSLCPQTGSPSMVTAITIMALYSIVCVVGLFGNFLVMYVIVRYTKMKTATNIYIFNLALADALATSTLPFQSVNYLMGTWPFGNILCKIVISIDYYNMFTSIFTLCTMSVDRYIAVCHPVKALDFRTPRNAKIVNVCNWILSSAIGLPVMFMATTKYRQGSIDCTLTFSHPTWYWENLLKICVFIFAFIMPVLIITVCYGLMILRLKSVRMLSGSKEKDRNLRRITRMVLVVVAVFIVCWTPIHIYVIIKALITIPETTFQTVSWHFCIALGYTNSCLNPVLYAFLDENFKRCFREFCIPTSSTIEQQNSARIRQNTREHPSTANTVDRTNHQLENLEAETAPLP

Compound: NNC(=O)[C@H](Cc1ccccc1)NC(=O)[C@H](Cc1ccccc1)NC(=O)[C@@H]1CCCN1C(=O)[C@H](Cc1ccc(O)cc1)NC(=O)c1ccccc1 [N-Bz-Tyr-Pro-Phe-Phe-NHNH2]
- discomfort from the injections [1]: no discomfort from the injections
- duration of pain relief [1]: 11 h
- improvement by clinical evaluation [1]: more than 90%
- pains in both knees [1]: gradually disappeared
- analgesic efficacy rated by the subject ([2]; 1% (w/v) in WEP442, topical): 100%
- duration of pain relief ([2]; 1% (w/v) in WEP442, topical): about 24 hours
- pain relief [2]: rapid complete relief of pain

Compound: CC(=O)Nc1ccc(O)cc1 [acetaminophen, reference compound]
- pain relief (headache): slight relief of pain

Compound: N-Ac-Tyr-Pro-Phe-Phe-NHCH2CH2CH3 (Ac-YPFF-NHPr; SMILES CCCNC(=O)[C@H](Cc1ccccc1)NC(=O)[C@H](Cc1ccccc1)NC(=O)[C@@H]1CCCN1C(=O)[C@H](Cc1ccc(O)cc1)NC(C)=O)
- analgesic efficacy rated by the subject ([2]; 1% (w/v) in WEP442, topical): 75%
- duration of pain relief ([2]; 1% (w/v) in WEP442, topical): less than 6 hours
- time to pain relief ([2]; 1% (w/v) in WEP442, topical): more than 5 minutes
- pain relief [2]: slower relief of pain

Compound: N-Ac-Tyr-Pro-Phe-Phe-NHCH3 (Ac-YPFF-NHMe; SMILES CNC(=O)[C@H](Cc1ccccc1)NC(=O)[C@H](Cc1ccccc1)NC(=O)[C@@H]1CCCN1C(=O)[C@H](Cc1ccc(O)cc1)NC(C)=O)
- duration of pain relief [3]: about 4 hours
- pain relief [3]: Complete relief of pain
- time to pain relief [3]: ≤ 2 min
- duration of pain relief [4]: about 17 hours
- pain relief [4]: completely relieved all pain
- time to pain relief [4]: 5 to 7 min
- duration of pain relief [5]: about 7 hours
- pain relief [5]: completely relieved
- time to pain relief [5]: 3 to 4 min
- recurrence (lower back (lumbar) pain; 0/8% (w/v) in WEP442, topical): did not return
- time to pain relief (lower back (lumbar) pain; 0/8% (w/v) in WEP442, topical): ≤ 5 min
- pain relief (lower back (lumbar) pain; (w/v) in WEP442, topical): complete resolution of all pain in the lower back
- pain relief (post-sunburn pain; 0.8% (w/v) in WEP442, several applications over the next 24 hours): complete relief of pain
- duration of relief (post-sunburn pain; 0.8% (w/v) in WEP442, topical): 4 h
- pain relief (post-sunburn pain; 0.8% (w/v) in WEP442, topical): almost immediate relief of the painful discomfort

Compound: N-Ac-Tyr-Pro-Phe-Phe-NHNH2 (Ac-YPFF-NHNH2; SMILES CC(=O)N[C@@H](Cc1ccc(O)cc1)C(=O)N1CCC[C@H]1C(=O)N[C@@H](Cc1ccccc1)C(=O)N[C@@H](Cc1ccccc1)C(=O)NN)
- pain relief [6]: Almost complete relief of pain
- time to pain relief [6]: ≤ 10 min
- pain relief (hangover headache): the headache ceased
- time to pain relief (hangover headache): 1 to 2 min
- pain relief (sinus headaches): headache completely subsided
- time to pain relief (sinus headaches): ≤ 10 min
- blister at burned site (thermal burn of finger): did not developed a blister
- pain relief (thermal burn of finger): completely relieved the pain almost instantly
- pain relief (migraine): complete relief of pain

Compound: N-Ac-Tyr-Pro-Phe-Phe-OEt (Ac-YPFF-OEt; SMILES CCOC(=O)[C@H](Cc1ccccc1)NC(=O)[C@H](Cc1ccccc1)NC(=O)[C@@H]1CCCN1C(=O)[C@H](Cc1ccc(O)cc1)NC(C)=O)
- efficacy by clinical evaluation [7]: 0

Compound: N-Bz-Tyr-Pro-Phe-Phe-NHOH ({Bz′}-YPFF-{NHOH})
- analgesic efficacy rated by the subject ([2]; 1% (w/v) in WEP442, topical): 90%
- duration of pain relief ([2]; 1% (w/v) in WEP442, topical): about 10 hours
- pain relief [2]: rapid complete relief of pain

Compound: N-Pg-Tyr-Pro-Trp-Phe-NH2 [reference compound]
- pain relief [6]: slow, minimal relief of pain

Compound: Tyr-Pro-Trp-Phe-NH2 [reference compound]
- affinity for mu receptors (mu receptors): very high affinity
- spontaneous discharge of the medullary neurons [8]: significantly inhibited
- desensitization of the motor response [9]: did not induce rapid desensitization of the motor response
